The values that follow are results of earlier work, collected in patent US20160151380A1, “THERAPIES FOR DISEASES CAUSED BY ARTHROPOD-BORNE PARASITES” (THE REGENTS OF THE UNIVERSITY OF CALIFORNIA, priority 2013, published 2016).

A value given as a limit tells only on which side of the number the result lay.

In general, IC50 refers to the point on the concentration scale where inhibition reaches its midpoint. Broadly, the Kd is the constant that tells how readily two partners part at equilibrium. For orientation: Ki means a measure of affinity in units of concentration, obtained from inhibition or displacement.

For one series, the target named is JNK1 (Homo sapiens, UniProt P45983). As to conditions: cited from earlier work.
Sequence of JNK1 (P45983 whole entry, species assumed): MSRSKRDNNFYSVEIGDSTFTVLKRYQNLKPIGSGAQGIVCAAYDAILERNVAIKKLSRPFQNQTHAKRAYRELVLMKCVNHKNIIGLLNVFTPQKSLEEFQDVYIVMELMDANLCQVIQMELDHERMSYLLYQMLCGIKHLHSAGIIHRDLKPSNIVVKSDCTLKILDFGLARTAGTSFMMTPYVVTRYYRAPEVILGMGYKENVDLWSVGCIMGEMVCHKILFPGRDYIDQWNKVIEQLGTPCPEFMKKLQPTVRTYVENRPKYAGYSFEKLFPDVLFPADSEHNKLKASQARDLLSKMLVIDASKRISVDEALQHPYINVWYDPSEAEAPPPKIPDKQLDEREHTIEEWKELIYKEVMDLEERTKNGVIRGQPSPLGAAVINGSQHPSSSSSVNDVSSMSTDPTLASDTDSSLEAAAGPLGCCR
The next series deals with T1, PKCepsilon (Homo sapiens, UniProt Q02156).
T1 sequence (Q02156 1-737): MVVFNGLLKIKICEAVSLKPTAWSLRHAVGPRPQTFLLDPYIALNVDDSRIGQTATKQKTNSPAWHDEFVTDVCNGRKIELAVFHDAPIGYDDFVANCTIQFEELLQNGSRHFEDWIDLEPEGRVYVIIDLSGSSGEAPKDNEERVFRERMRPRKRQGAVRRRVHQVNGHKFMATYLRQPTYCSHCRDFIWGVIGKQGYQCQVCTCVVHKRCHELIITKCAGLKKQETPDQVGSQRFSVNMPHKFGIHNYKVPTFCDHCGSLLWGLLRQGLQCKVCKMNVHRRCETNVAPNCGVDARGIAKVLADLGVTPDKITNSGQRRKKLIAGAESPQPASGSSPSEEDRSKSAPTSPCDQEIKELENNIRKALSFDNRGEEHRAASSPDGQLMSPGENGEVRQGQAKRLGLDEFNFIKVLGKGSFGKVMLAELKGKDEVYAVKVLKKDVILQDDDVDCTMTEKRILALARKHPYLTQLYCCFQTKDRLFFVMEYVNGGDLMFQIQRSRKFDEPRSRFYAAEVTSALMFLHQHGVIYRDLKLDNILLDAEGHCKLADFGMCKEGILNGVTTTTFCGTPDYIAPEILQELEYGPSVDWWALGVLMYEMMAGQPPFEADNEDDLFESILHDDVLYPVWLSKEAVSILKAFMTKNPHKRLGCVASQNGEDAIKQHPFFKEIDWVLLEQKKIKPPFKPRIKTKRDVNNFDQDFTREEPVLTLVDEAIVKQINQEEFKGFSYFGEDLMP
The following applies: cited from earlier work.

In the case of `N#CC(c1ccnc(NCCc2cccnc2)n1)c1nc2ccccc2s1` (stereo not drawn) [AS601245], the IC50 at JNK1 was 150 nM.
Consider `O=C1NC(=O)c2c1c1c3ccccc3[nH]c1c1[nH]c3ccccc3c21` [Arcyriaflavin A], for which the IC50 at PKCepsilon (PKCepsilon) is 310 nM.
Regarding `CC(C)(C)c1nc2c3cc[nH]c(=O)c3c3cc(F)ccc3c2[nH]1` [BCP9000906], at PKCepsilon (PKCepsilon), the IC50 was 500 nM.
Take `COc1cccc(Nc2ncnn3ccc(CN4CC[C@@H](N)[C@H](O)C4)c23)c1` [BMS-690514]: the Kd on PKCepsilon (PKCepsilon) was less than 400 nM.
For `CCS(=O)(=O)N1CC(CC#N)(n2cc(-c3ncnc4[nH]ccc34)cn2)C1` [Baricitinib], at JNK1, the IC50 was greater than 1000 nM.
Turning to `O=C1NC(=O)C(c2c[nH]c3ccccc23)=C1c1c[nH]c2ccccc12` [Bisindolylmaleimide IV, 3,4-bis(1H-indol-3-yl)pyrrole-2,5-dione], the IC50 on PKCepsilon (PKCepsilon) is 190 nM.
`CN(C)CCCn1cc(C2=C(c3c[nH]c4ccccc34)C(=O)NC2=O)c2ccccc21` [Bisindolylmaleimide I]: the IC50 on PKCepsilon (PKCepsilon) is less than 25 nM.
For `CCN1CCOCCn2cc(c3ccccc32)C2=C(C(=O)NC2=O)c2cn(c3ccccc23)CCOCC1` [CHEMBL103055], the IC50 at PKCepsilon (PKCepsilon) was 75 nM.
For the compound `O=C(OC1CCCC1Cc1ccc(O)cc1)c1cc(O)c(C(=O)c2c(O)cccc2C(=O)O)c(O)c1` (stereo not drawn) [CHEMBL295806], the IC50 on PKCepsilon (PKCepsilon) is 120 nM.
As to `N=C(N)SCCCn1c(-c2cc3ccccc3s2)c(C2=CC(=O)NC2=O)c2ccccc21` [CHEMBL350335], at PKCepsilon (PKCepsilon), the IC50 was 10 nM.
In the case of `Cc1c(Nc2c(C#N)cncc2/C=C/CCN2CCC[C@@H](N)C2)ccc2[nH]ccc12` [CHEMBL606245], the IC50 on PKCepsilon (PKCepsilon) was 14 nM.
Consider `N#C/C(=C1/Nc2ccccc2S1)c1ccnc(NCCc2cccnc2)n1` [CHEMBL1788116], for which the IC50 at JNK1 was 150 nM.
Regarding `COc1ccc2c(c1)c(C1=C(c3c[nH]c4ccccc34)C(=O)NC1=O)cn2CCCN(C)C` [Go6983, 3-[1-[3-(dimethylamino)propyl]-5-methoxyindol-3-yl]-4-(1H-indol-3-yl)pyrrole-2,5-dione], the IC50 at PKCepsilon (PKCepsilon) is greater than 150 nM.
For the compound `Cc1cncc2cccc(S(=O)(=O)N3CCCN(C(=O)CN)C[C@@H]3C)c12` [H-1152; Glycyl], at PKCepsilon (PKCepsilon), the IC50 is 500 nM.
Turning to `C#Cc1cccc(Nc2ncnc3cc4c(cc23)OCCOCCOCCO4)c1` [Icotinib], the IC50 at PKCepsilon (PKCepsilon) was greater than 1000 nM.
Regarding `CC(C)[C@H]1C(=O)N[C@H](CO)Cc2c[nH]c3cccc(c23)N1C` [Indolactam V], the Ki at PKCepsilon is 7.7 nM.
`O=C1NC(=O)C(c2cn(CCCn3ccnc3)c3ccccc23)=C1Nc1ccccc1` [PKCb Inhibitor, 3-anilino-4-[1-(3-imidazol-1-ylpropyl)indol-3-yl]pyrrole-2,5-dione]: the IC50 on PKCepsilon (PKCepsilon) was greater than 50 nM.
On to `O=C1Nc2ccc3ncsc3c2/C1=C/c1cnc[nH]1` [PKR Inhibitor], for which the IC50 on PKCepsilon (PKCepsilon) is greater than 150 nM.
Take `Nc1ncnc2c1c(-c1cnc3[nH]ccc3c1)nn2C1CCCC1` [PP121]: the IC50 at PKCepsilon (PKCepsilon) was less than 750 nM.
Turning to `Cn1cc(C2=C(c3cn(CCCSC(=N)N)c4ccccc34)C(=O)NC2=O)c2ccccc21` [Ro-31-8220, methanesulfonic acid; 3-[3-[4-(1-methylindol-3-yl)-2,5-dioxopyrrol-3-yl]indol-1-yl]propyl carbamimidothioate], the IC50 at PKCepsilon (PKCepsilon) is 10 nM.
As for `O=C1NC(=O)c2c1c1c3ccccc3n3c1c1c2c2ccccc2n1C1CCC3O1` [SB218078], the IC50 at PKCepsilon (PKCepsilon) was greater than 150 nM.
`C[C@@H](OC(=O)c1ccc2c(c1)OCCO2)C(=O)Nc1ccc(Cl)cc1Cl` [SureCN2579964]: the IC50 at PKCepsilon (PKCepsilon) is less than 750 nM.
For the compound `CCc1cccc(OCCOCCN2CC(C)OC(C)C2)c1` (stereo not drawn) [SureCN2934634], the IC50 on PKCepsilon (PKCepsilon) is 1.6 nM.
As to `CC1CCCN(CCOCCOc2ccc(Cl)cc2C(C)(C)C)C1` (stereo not drawn) [SureCN2934911], on PKCepsilon (PKCepsilon), the IC50 is 36 nM.
As for `CCOC(=O)C(NC(=O)CCC(=O)OCC(=O)C1(O)CCC2C3CCC4=CC(=O)CCC4(C)C3C(O)CC21C)C(O)c1ccccc1` (stereo not drawn) [SureCN3774124], on PKCepsilon (PKCepsilon), the IC50 is 330 nM.
Take `COc1c(Br)cc(Br)cc1/C=N\Nc1nc(NCc2ccccc2)nc(N2CCOCC2)n1` [SureCN5757856]: on PKCepsilon (PKCepsilon), the IC50 was 140 nM.
Turning to Cdk1/2 Inhibitor III, the IC50 at PKCepsilon (PKCepsilon) is greater than 50 nM.
